From article PMC9415116, “Regionally selective cardiovascular responses to adenosine A2A and A2B receptor activation” (The FASEB Journal, 2022)

Tests used:
rat Nluc-A2BR = biological target: T1, rat Nluc-A2BR (Rattus norvegicus, UniProt P29276, M1L); experiment: NanoBRET competition binding with CA200645, intact HEK293T cells; format: cell-based; settings: for Ki: read-out: Nluc-rat A2B (pKD or pKi) (converted)
T1 construct: gene Adora2b; internal XhoI site removed (silent by primer); transient in intact HEK293T cells
T1 sequence (P29276 1-332 M1L): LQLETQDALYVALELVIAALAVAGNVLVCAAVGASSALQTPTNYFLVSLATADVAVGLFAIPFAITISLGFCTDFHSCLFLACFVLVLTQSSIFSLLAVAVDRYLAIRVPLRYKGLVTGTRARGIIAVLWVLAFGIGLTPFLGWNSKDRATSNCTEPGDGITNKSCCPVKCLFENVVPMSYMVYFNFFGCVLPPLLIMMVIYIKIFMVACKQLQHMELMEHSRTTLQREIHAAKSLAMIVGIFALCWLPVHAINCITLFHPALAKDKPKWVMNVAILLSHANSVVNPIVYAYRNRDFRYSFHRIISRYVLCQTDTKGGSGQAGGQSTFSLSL
Text: NanoBRET competition binding with CA200645, intact HEK293T cells on rat Nluc-A2BR

rat Nluc-A2AR = biological target: T2, rat Nluc-A2AR (Rattus norvegicus, UniProt P30543, M1L); experiment: as above; format: cell-based; settings: read-out: Nluc-rat A2A (pKD or pKi) (converted)
T2 construct: gene Adora2a; internal BamHI site removed (silent by primer); transient in intact HEK293T cells
T2 sequence (P30543 whole entry M1L): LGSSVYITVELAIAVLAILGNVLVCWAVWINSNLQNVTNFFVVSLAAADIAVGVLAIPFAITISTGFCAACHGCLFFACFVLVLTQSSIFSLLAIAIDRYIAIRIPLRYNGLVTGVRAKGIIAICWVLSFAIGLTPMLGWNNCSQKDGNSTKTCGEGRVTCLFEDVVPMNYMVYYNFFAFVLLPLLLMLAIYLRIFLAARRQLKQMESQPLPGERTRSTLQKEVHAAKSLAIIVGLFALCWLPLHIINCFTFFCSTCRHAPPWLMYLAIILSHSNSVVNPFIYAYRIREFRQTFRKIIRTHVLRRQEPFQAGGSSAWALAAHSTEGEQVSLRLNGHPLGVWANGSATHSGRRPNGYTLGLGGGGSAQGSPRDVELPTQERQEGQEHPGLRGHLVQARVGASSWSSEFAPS
Text: NanoBRET competition binding with CA200645, intact HEK293T cells on rat Nluc-A2AR

Compound	Nluc-rat A2B (pKD or pKi) (rat Nluc-A2BR; […] CA200645, HBSS pH […] BSA, […] DMSO, […] °C, […] h, Cheng-Prusoff)	Ki (rat Nluc-A2BR) [nM]	Ki (rat Nluc-A2AR) [nM]
N#Cc1c(N)nc(SCC(N)=O)c(C#N)c1-c1ccc(OCC2CC2)cc1 [BAY 60‐6583, 2‐[[6‐Amino‐3,5‐dicyano‐4‐[4‐(cyclopropylmethoxy)phenyl]‐2‐pyridinyl]thio]‐acetamide]	6.33 ± 0.03		
CCCn1c(=O)[nH]c2nc(-c3ccc(S(=O)(=O)N4CCN(c5ccc(Cl)cc5)CC4)cc3)[nH]c2c1=O [PSB 603]		2	490
CCCn1c(=O)[nH]c2nc(-c3ccc(S(=O)(=O)O)cc3)[nH]c2c1=O [PSB 1115, 4‐(2,3,6,7‐Tetrahydro‐2,6‐dioxo‐1‐propyl‐1H‐purin‐8‐yl)‐benzenesulfonic acid]		537	2880
Nc1nc2c(cnn2CCc2ccccc2)c2nc(-c3ccco3)nn12 [SCH 58261, 2‐(2‐Furanyl)‐7‐(2‐phenylethyl)‐7H‐pyrazolo[4,3‐e][1,2,4]triazolo[1,5‐c]pyrimidin‐5‐amine]		708	
